Experimental data published in US9808434B2, “Compound for treating cancer and diabetes” (CITY OF HOPE, priority 2011, dated 2017).
pIC50: −log10 of the molar value.

Columns and labels:
[1] = tested on: 3T3-L1 cells; assay: Intracellular triglyceride contents, AdipoRed Assay; type: cell-based, mouse; conditions: 7 days in DM + compound
Experimental: Intracellular triglyceride contents were measured using AdipoRed Assay™ and the results were shown in relative fluorescence units (RFU) in FIG. 5.
(§1) 3T3-L1 preadipocytes cells were treated with differentiating media (DM) with COH-SR4 (1 μM, 3 μM, or 5 μM) or without for 7 days. […] As used in FIG. 9C, U=undifferentiated, D=differentiated with cocktail media.

[2] = tested on: 3T3-L1 cells; assay: Adipocyte differentiation, Oil Red O staining; type: cell-based, mouse; conditions: preadipocytes 7 days in differentiating media (DM) + compound
Experimental: Two-day post-confluent 3T3-L1 preadipocyte cells were allowed to differentiate for 7 days in the presence of nothing, DM only, DM+ a test compound (COH-SR1, COH-SR2, COH-SR3, COH-SR4, COH-SR7, LR23 or LR59), or DM+ a positive control (TSA, C75, or Apicidin).
as §1

[3] = tested on: AMPK; assay: AMPK activation in Hela cells, Western blot; type: cell-based; conditions: 1 hour, 1, 3 or 5 μM
Experimental: Activation of AMPK was associated with the phosphorylation of the α-subunit on Thr-172 of as assessed using phospho-specific antibodies (FIGS. 10A-B). AMPK activation also leads to the increased phosphorylation of the target protein acetyl-CoA carboxylase (ACC) (FIG. 10B).
Cells of each cell lines (Hela, HL-60, and 3T3-L1) were treated for 1 hour with a test compound (COH-SR4, COH-SR9, COH-SR16, or COH-SR18) at a concentration of 1 μM, 3 μM, or 5 μM, or AICAR (5-aminoimidazole-4-carboxamideriboside, an AMPK agonist used as positive control) at a concentration of 500 μM, or none of the above (the untreated cells as negative control). Total cell lysates from the untreated cells and the cells treated with a test compound or AICAR were analyzed by Western blot assay using specific antibodies against phospho-AMPK, phospho-ACC, total AMPK and total ACC.

[4] = tested on: NCI-60 human tumor cell lines; assay: NCI-60 DTP Human Tumor Cell Line Drug Screening; type: cell-based; conditions: leukemia, NSCLC, colon, CNS, melanoma, ovarian, renal, prostate, breast lines
Description: Moreover, preliminary data from the NCI-60 DTP Human Tumor Cell Line Drug Screening (http://dtp.nci.nih.gov/branches/btb/ivclsp.html) further confirmed the observations on these COH-SR compounds. […] A value of 100 meant no growth inhibition. A value of 20 meant 80% growth inhibition. A value of 0 meant no net growth over the course of the experiment. A value of −40 meant 40% lethality. A value of −100 meant all cells were dead.

[5] = tested on: undifferentiated 3T3-L1 cells; assay: Preadipocyte viability, MTT assay; type: cell-based, mouse; conditions: 3 days, 2.5-25 μM
Experimental: Undifferentiated 3T3-LI cells were treated with COH-SR2, COH-SR3, COH-SR4, COH-SR7, LR23 or LR59 for 3 days at a concentration of 2.5 μM, 5 μM, 10 μM, 15 μM, 20 μM, or 25 μM. The cell viability for each treatment was determined by MTT assay (FIG. 7).

[6] = tested on: HL-60 cells; assay: HL-60 cell viability, MTT assay
Experimental: Three independent experiments were carried out with 3 duplications each, and data are shown as mean±SE.

[7] = tested on: HMLE breast cancer cell line; assay: HMLE viability, DIMSCAN assay; type: cell-based, human; conditions: 3 days, 2-50 μM
Experimental: The effects of COH-SR compounds on breast cancer cells were investigated. Cells from 4T1 or HMLE breast cancer cell line were seeded in 96-well plates (about 2000 cells/well), allowed to proliferate for one day, treated with a COH-SR compound, doxorubicin, paclitaxel, cisplatin, or nothing (control) at a specific dose (3 wells for each treatment) and assayed for cell viability 3 days after using DIMSCAN assay. COH-SR3, COH-SR4, COH-SR9, doxorubicin, paclitaxel, and cisplatin were used at a dosage of 40 nM, 200 nM, 1 μM, 2 μM, 10 μM, or 50 μM for 4T1 breast cancer cell lines. COH-SR14 was used at a dosage of 40 nM, 200 nM, 1 μM, 2 μM, or 10 μM for 4T1 breast cancer cell lines. COH-SR3, COH-SR4, COH-SR9, doxorubicin, paclitaxel, and cisplatin were used at a dosage of 2 μM, 10 μM, or 50 μM for HMLE breast cancer cell lines. COH-SR14 was used at a dosage of 2 μM, or 10 μM for HMLE breast cancer cell lines.

[8] = tested on: fully differentiated adipocytes; assay: Dedifferentiation of fully differentiated adipocytes, Oil Red O staining; type: cell-based; conditions: differentiated 7 days, treated additional 3 days
Experimental: Fully differentiated adipocyte cells were differentiated for 7 days and were treated for additional 3 days with DM+ a test compound (COH-SR3, COH-SR7, or LR59), DM+ a positive control (Apicidin, TSA or C75), DM, or nothing (control).

[9] = tested on: U251; assay: Glioma ATP viability assay, U251; type: cell-based; conditions: Table 2
Experimental: (§2) Cells of each cell line (U251, U87, PBT-017, PBT018, PBT003 and PBT028) were treated with various concentrations (0˜100 μM) of COH-SR4 for 72 hours. Cell viabilities were determined by ATP viability assays. Data were represented as a ratio to vehicle (DMSO) control, and plotted as mean±SEM (n=12) obtained from 2˜3 experiments (FIG. 34A).
as §2, with “(U87, U251,” for “(U251, U87, PBT-017, PBT018,”, “PVT-017)” for “PBT028)”, “2-3” for “2˜3”, “34B).” for “34A).”
Cells of each cell line were treated with various concentrations (0˜100 μM) of COH-SR4 or various concentrations (0˜1000 μM) of TMZ for 72 hours. Cell viabilities were determined by ATP viability assays. Data were represented as a ratio to untreated cells as control, and plotted as mean±SEM (n=12) obtained from 2˜3 experiments (FIGS. 43A-B).

[10] = tested on: HL-60 cells; assay: Differentiation of HL-60 cells (Giemsa-Wright, NBT, CD11b/CD14); type: cell-based, human; conditions: 48 hours, 2-10 μM
Experimental: HL-60 cells were incubated with a test compound at various concentrations (2˜10 μM), DMSO, or without any test compound for 48 hours, and then examined for morphologic changes by Giemsa-Wright stain. The results were observed microscopically and shown in FIG. 13 at a magnification of ×400. […] Such results were similar to cells treated with DMSO or all-trans retinoic acid (ATRA), wherein DMSO or ATRA terminally differentiated HL-60 cells into myeloid cells (FIG. 13).
HL-60 cells (2.5×10^5) were treated with or without a test compound for 48 hours and then stained with NBT, wherein positively-stained cells appeared as purple black (FIG. 14A). NBT positive cells were counted and the overall percentage was calculated based on 200 total cells counted for each treatment. Three˜four independent experiments were carried out, and data are shown as mean±SE (FIG. 14B). This measurement of “oxidative burst” by the NBT assay is a well-known and extensively tested functional marker of HL-60 cell differentiation.
HL-60 cells (2.5×10^5) were incubated with a test compound (COH-SR4 or COH-SR9) at a concentration of 0.5 μM, 1 μM, 2 μM, or 3 μM, or without any COH-SR compound for 48 hours and then assessed for the surface expression of CD11b (FIG. 14C) and CD14 (FIG. 14D) by flow cytometry, respectively. Three-four independent experiments were carried out, and data are shown as mean±SE (FIGS. 14C and 14D).

Row | Compound | intracellular triglyceride contents (AdipoRed Assay) [1] | differentiation and accumulation of lipid droplets (Oil Red O staining) [2] | activity in NCI-60 screening [4] | further results
1 | COc1cc(CCC(=O)CC(=O)CCc2ccc(OC(C)=O)c(OC)c2)ccc1OC(C)=O [COH-SR1, 1,7-bis(4′-acetoxy-3′-methoxyphenyl)-3,5-heptadione] | dose-dependently reduced | dose-dependently inhibited differentiation and accumulation of lipid droplets | – | –
2 | O=C(Nc1cc(Cl)cc(Cl)c1)Nc1cc(Cl)nc(Cl)c1 [COH-SR16, 1-(2,6-dichloropyridin-4-yl)-3-(3,5-dichlorophenyl) urea] | – | – | active against | AMPK activation [3]: Dose-dependent AMPK activation
3 | COc1cc(/C=C/C(=O)/C=C(O)/C=C/c2ccc(OC(C)=O)c(OC)c2)ccc1O [COH-SR2, (1E,4Z,6E)-7-(4″-acetoxy-3″-methoxyphenyl)-5-hydroxy-1-(4′-hydroxy-3′-methoxyphenyl)hepta-1,4,6-trien-3-one] | dose-dependently reduced | dose-dependently inhibited differentiation and accumulation of lipid droplets | active against | growth of undifferentiated preadipocytes (MTT) [5]: inhibited growth of undifferentiated 3T3-L1 cells
4 | Cc1c(Cl)cc(NC(=O)Nc2cc(Cl)cc(Cl)c2)cc1Cl [COH-SR14, 1-(3,5-dichloro-4-methylphenyl)-3-(3,5-dichlorophenyl) urea] | – | – | active against | pIC50 ([6]; Homo sapiens, HL-60, 48 h): > 5.30; cytotoxic effects compared with doxorubicin, paclitaxel and cisplatin (FIG. 30) [7]: more potent cytotoxic effects
5 | 1-(4-chlorobenzyl)-3-dichlorophenyeureido)-4-phenoxyisobutyric acid [LR59] | dose-dependently reduced | dose-dependently inhibited differentiation and accumulation of lipid droplets | – | dedifferentiation of fully differentiated adipocytes [8]: induced dedifferentiation of fully differentiated adipocytes
6 | CCc1c2c(nc3ccc(OC(=O)N4CCC(N5CCCCC5)CC4)cc13)-c1cc3c(c(=O)n1C2)COC(=O)[C@]3(O)CC [CPT-11, irinotecan] | – | – | – | pIC50 ([9]; Homo sapiens, U-251, 72 h): 4.39
7 | COc1ccc(-c2ccccc2)cc1NC(=O)Nc1cc(Cl)cc(Cl)c1 [COH-SR6, 1-(3,5-dichlorophenyl)-3-(4-methoxy-[1,1′-bisphenyl]-3-yl) urea] | – | – | active against | cytotoxicity and cell proliferation ([6]; 48 hours, 1-15 μM): exhibited cytotoxicity and prevented cell proliferation of HL-60 leukemia cells; morphologic changes (Giemsa-Wright stain), myeloid differentiation [10]: exhibited cytoplasmic vacuolation, reduced nucleus-to-cytoplasmic ratio, and absence of prominent nucleoli
8 | CCc1c2c(nc3ccc(O)cc13)-c1cc3c(c(=O)n1C2)COC(=O)[C@]3(O)CC [SN-38, 7-ethyl-10-hydroxy-camptothecin] | – | – | – | pIC50 ([9]; 72 hours): 7.40
9 | CC(C)(Oc1ccc(NC(=O)Nc2cc(Cl)cc(Cl)c2)cc1)C(=O)NC1(C(=O)O)CCCCC1 [LR23, 4-(3,5-dichlorophenylureido)phenoxyisobutyryl-1-amidocyclohexane-lcarboxylic acid] | dose-dependently reduced | dose-dependently inhibited differentiation and accumulation of lipid droplets | – | –
10 | O=c1[nH]cc(F)c(=O)[nH]1 [5-FU] | – | – | – | pIC50 ([9]; 72 hours): 4.21
11 | CC(C)(Oc1ccc(NC(=O)Nc2cc(Cl)cc(Cl)c2)cc1)C(=O)Nc1ccc(C(=O)O)cc1 [COH-SR7, 4-[(3,5-dichlorophenylureido)phenoxyisobutyril]-4-aminobenzoic acid] | dose-dependently reduced | dose-dependently inhibited differentiation and accumulation of lipid droplets | – | growth of undifferentiated preadipocytes (MTT) [5]: inhibited growth of undifferentiated 3T3-L1 cells; dedifferentiation of fully differentiated adipocytes [8]: induced dedifferentiation of fully differentiated adipocytes; morphologic changes (Giemsa-Wright stain), myeloid differentiation [10]: exhibited cytoplasmic vacuolation, reduced nucleus-to-cytoplasmic ratio, and absence of prominent nucleoli
12 | O=C(Nc1cc(Cl)cc(Cl)c1)Nc1ccnc(Cl)n1 [COH-SR18, 1-(2-chloropyrimidin-4-yl)-3-(3,5-dichlorophenyl) urea] | – | – | – | AMPK activation [3]: Dose-dependent AMPK activation
